From US4933363A, “Method for effecting systemic delivery of delta-9-tetrahydrocannabinol” (priority 1988, dated 1990)

Legend:
[1] = 4×4 Latin square comparison of i.v., oral and suppository administration (GC/MS plasma levels); conditions: for Mean delta-9-tetrahydrocannabinol level in plasma: four monkeys; for concentration at 0.25 h / concentration at 0.5 h / concentration at 1 h / concentration at 1.5 h / concentration at 2 h / concentration at 3 h / concentration at 4 h / concentration at 6 h / concentration at 8 h / concentration at 24 h / concentration at 0.1 h: monkey, plasma
[2] = Suppository of N-methyl glucamine salt vs free hemisuccinate ester (GC/MS blood levels); conditions: equivalent to 10 mg parent drug per suppository, monkeys
[3] = Bioavailability of parent delta-9-tetrahydrocannabinol from a suppository (GC/MS of blood samples); assay type: in vivo, monkey; conditions: 10 mg/suppository
Experimental: The parent drug delta-9-tetrahydrocannabinol was formulated in a suppository form at 10 mg/suppository using Witepsol-H15 as the base. One suppository was administered to a monkey and blood samples collected at the same time intervals as shown under Examples II-V. GC/MS analysis of these samples was carried out for delta-9-tetrahydrocannabinol and its metabolite.

[4] = cited from earlier work
[5] = various suppository formulations; cited from earlier work
[6] = i.v., 0.5 mg/kg parent equivalent, 0.0 hr
[7] = Witepsol-H15, one monkey, GC/MS, all time points

CCCCCc1cc(OC(=O)CCC(=O)O)c2c(c1)OC(C)(C)[C@@H]1CCC(C)=C[C@@H]21 [Delta-9-tetrahydrocannabinol hemisuccinate ester]
equivalency of intravenous dosage of ester to intravenous dosage of parent ([1]; i.v., 0.5 mg/kg parent drug equivalent, monkeys): equivalency of the intravenous dosage of the hemisuccinate ester of delta-9-tetrahydrocannabinol to the intravenous dosage of the parent delta-9-tetrahydrocannabinol
Mean delta-9-tetrahydrocannabinol level in plasma [1, 6]: 0.0 ng/mL
concentration at 0.25 h [1]: 14.8 ng/mL
concentration at 0.5 h [1]: 33.5 ng/mL
concentration at 1 h [1]: 46 ng/mL
concentration at 1.5 h [1]: 53.5 ng/mL
concentration at 2 h [1]: 53.3 ng/mL
concentration at 3 h [1]: 50 ng/mL
concentration at 4 h [1]: 38 ng/mL
concentration at 6 h [1]: 18.5 ng/mL
concentration at 8 h [1]: 12.8 ng/mL
concentration at 24 h [1]: 1.3 ng/mL
concentration at 0.1 h ([1]; iv, 0.5 mg/kg): 2060 ng/mL
concentration at 0.25 h ([1]; iv, 0.5 mg/kg): 669 ng/mL
concentration at 0.5 h ([1]; iv, 0.5 mg/kg): 251 ng/mL
concentration at 1 h ([1]; iv, 0.5 mg/kg): 95.8 ng/mL
concentration at 1.5 h ([1]; iv, 0.5 mg/kg): 65.3 ng/mL
concentration at 2 h ([1]; iv, 0.5 mg/kg): 42.5 ng/mL
concentration at 3 h ([1]; iv, 0.5 mg/kg): 26.3 ng/mL
concentration at 4 h ([1]; iv, 0.5 mg/kg): 18.5 ng/mL
concentration at 6 h ([1]; iv, 0.5 mg/kg): 13 ng/mL
concentration at 8 h ([1]; iv, 0.5 mg/kg): 8 ng/mL
concentration at 24 h ([1]; iv, 0.5 mg/kg): 2.5 ng/mL
delivery of delta-9-tetrahydrocannabinol to the blood vs oral sesame seed oil formulation of parent ([1]; suppository vs oral 10 mg, monkeys): extraordinary superiority
Mean delta-9-tetrahydrocannabinol level in plasma ([1]; suppository, 0.0 hr): 0.0 ng/mL
Mean delta-9-tetrahydrocannabinol level in plasma ([1]; suppository, 0.1 hr): 0.0 ng/mL
blood levels, free ester vs N-methyl glucamine salt suppository [2]: virtually equivalent

CCCCCc1cc(O)c2c(c1)OC(C)(C)[C@@H]1CCC(C)=C[C@@H]21 [delta-9-tetrahydrocannabinol]
bioavailability from a suppository dosage form ([3]; Witepsol-H15, monkey): lack of bioavailability
delta-9-tetrahydrocannabinol detected in blood samples [3, 7]: Neither delta-9-tetrahydrocannabinol nor its metabolite was detected
metabolite (11-nor-delta-9-tetrahydrocannabinol-9-COOH) detected in blood samples [3, 7]: Neither delta-9-tetrahydrocannabinol nor its metabolite was detected
bioavailability via the oral routes ([4]; oral (e.g. chocolate cookies, sesame oil capsules)): quite low
effect of fasting or food deprivation on absorption from the gastrointestinal tract ([4]; oral, fasting or food deprivation): decreased by fasting or food deprivation
interpatient variability in absorption ([4]; oral, patients): extreme interpatient variability in absorption
oral absorption ([4]; oral): slow and erratic
Mean delta-9-tetrahydrocannabinol level in plasma [1, 6]: 0.0 ng/mL
concentration at 0.1 h ([1]; iv, 0.5 mg/kg): 1680 ng/mL
concentration at 0.25 h ([1]; iv, 0.5 mg/kg): 335 ng/mL
concentration at 0.5 h ([1]; iv, 0.5 mg/kg): 170 ng/mL
concentration at 1 h ([1]; iv, 0.5 mg/kg): 102 ng/mL
concentration at 1.5 h ([1]; iv, 0.5 mg/kg): 67.3 ng/mL
concentration at 2 h ([1]; iv, 0.5 mg/kg): 55.8 ng/mL
concentration at 3 h ([1]; iv, 0.5 mg/kg): 34 ng/mL
concentration at 4 h ([1]; iv, 0.5 mg/kg): 22.8 ng/mL
concentration at 6 h ([1]; iv, 0.5 mg/kg): 29 ng/mL
concentration at 8 h ([1]; iv, 0.5 mg/kg): 17.3 ng/mL
concentration at 24 h ([1]; iv, 0.5 mg/kg): 2.5 ng/mL
concentration at 3 h ([1]; po, 10 mg): 0.5 ng/mL
concentration at 4 h ([1]; po, 10 mg): 1.3 ng/mL
concentration at 6 h ([1]; po, 10 mg): 2.3 ng/mL
concentration at 8 h ([1]; po, 10 mg): 4.3 ng/mL
concentration at 24 h ([1]; po, 10 mg): 0.8 ng/mL
Mean delta-9-tetrahydrocannabinol level in plasma ([1]; oral, 10 mg in sesame oil, 0.0 hr): 0.0 ng/mL
Mean delta-9-tetrahydrocannabinol level in plasma ([1]; oral, 10 mg in sesame oil, 0.1 hr): 0.0 ng/mL
Mean delta-9-tetrahydrocannabinol level in plasma ([1]; oral, 10 mg in sesame oil, 0.25 hr): 0.0 ng/mL
Mean delta-9-tetrahydrocannabinol level in plasma ([1]; oral, 10 mg in sesame oil, 0.5 hr): 0.0 ng/mL
Mean delta-9-tetrahydrocannabinol level in plasma ([1]; oral, 10 mg in sesame oil, 1.0 hr): 0.0 ng/mL
Mean delta-9-tetrahydrocannabinol level in plasma ([1]; oral, 10 mg in sesame oil, 1.5 hr): 0.0 ng/mL
Mean delta-9-tetrahydrocannabinol level in plasma ([1]; oral, 10 mg in sesame oil, 2.0 hr): 0.0 ng/mL
absorption and bioavailability via the rectal route [5]: no absorption, consequently no bioavailability achieved via the rectal route
